The HC50 is the concentration that lyses half of the red blood cells. A higher HC50 goes with weaker haemolysis. What is called IC50 is the concentration that inhibits the measured activity by half. A low value points to higher potency.

Here are results for 9 compounds from PMC6332255, “Evaluation of the Cytotoxicity of α-Cyclodextrin Derivatives on the Caco-2 Cell Line and Human Erythrocytes” (Molecules, 2015).

One data set deals with human erythrocytes. The experiment in a line: Hemolysis test on human red blood cells. Type of data set: cell-based. The note with it: for HC50: PBS pH 7.2, 37 °C, mean ± SD; for HC50 / concentration up to which not hemolytic: 10 min. The procedure:
Hemolysis test was performed on fresh human blood. Erythrocytes were separated from citrated blood by centrifugation at 2500× g for 10 min.; washed three times with PBS and resuspended in the same solution. Aliquots of the cell suspension with the respective red blood cell number of 5 × 10^7 were added to the buffer solution (PBS pH 7.2) containing increasing concentrations of the samples investigated in the study. After mixing them gently, each solution was incubated at 37 °C for 10 min and then centrifuged at 5000× g. Finally, the absorbance of the hemoglobin released into the supernatant was measured at 540 nm with a FLUOstar OPTIMA Microplate Reader. The percentage of hemolysis was expressed as the ratio of hemoglobin in the supernatant of the sample solutions related to the hemoglobin concentration after the complete hemolysis of erythrocytes in water. The dose-response curve was determined, and the concentration inducing hemolysis in 50% of the erythrocyte population (HC50) was subsequently calculated.

For data set [1], the system named is Caco-2 cells. The experiment in a line: MTT cell viability assay on Caco-2 cells. The note with it: for IC50: 30 min incubation at 37 °C in PBS, mean ± SD; for concentration up to which no toxic effect (MTT): 30 min. Type of data set: cell-based, human. As for the experimental part:
(§1) Caco-2 cell line was obtained from the European Collection of Cell Cultures (ECACC). Cells were grown in plastic cell culture flasks in Dulbecco’s Modified Eagle’s Medium supplemented with 3.7 g/L NaHCO3, 10% (v/v) heat-inactivated fetal bovine serum (FBS), 1% (v/v) non-essential amino acids solution, 1% (v/v) L-glutamine, 100 IU/mL penicillin, and 100 µg/mL streptomycin at 37 °C in an atmosphere of 5% CO2. The cells were routinely maintained by regular passaging. For cytotoxic and transport experiments, cells were used between passage numbers 20 and 40. The culture media were replaced with fresh media in every 72 h.
The MTT assay was performed on Caco-2 cells. The cells were seeded in 96 well plates until the cell monolayer become confluent. The medium was changed once. After one week the medium was removed, the cells were washed with PBS and exposed to increasing concentrations of α-CDs dissolved in phosphate buffer saline (PBS). Cells were incubated for 30 min on 37 °C. Control groups were processed equally and incubated without CD simultaneously. After treatment MTT dye (3-(4,5-dimethylthiazol-2-yl))-2,5-diphenyltetrazolium bromide, 5 mg/mL) was applied to each well for 3 h. MTT solution was removed and isopropanol-hydrochloric acid (25:1) was added to dissolve the formed formazan crystals. The absorbance was measured at 570 nm against a 690 nm reference with a FLUOstar OPTIMA Microplate Reader. Cell viability was expressed as the percentage of untreated control.
For orientation: Formazan colour is commonly taken as a measure of viable cells.

Data set [2] relates to Caco-2 cells. The experiment in a line: Real-time cell electronic sensing (RT-CES) on Caco-2 cells. The note with it: for IC50: up to 8 h treatment, impedance cell index; for concentration up to which non-toxic (RT-CES): up to 8 h; for toxicity by RT-CES, result in words: prolonged exposition time (up to 8 h) versus 30 min MTT. It is filed as cell-based, human. As for the experimental part:
as §1
Real-time cell electronic sensing (RT-CES) is a label-free technique for dynamic monitoring of living cells. The xCELLigence system (Roche, Basel, Switzerland) utilizes an electronic readout called impedance to non-invasively quantify adherence cell proliferation and viability. E-plates (Roche) contain gold microelectronic sensor arrays. The interaction between cells and the electrode generates impedance response that correlates linearly with cell index reflecting cell number, adherence and cell growth. This method is more sensitive and informative than colorimetric end-point assays to test pharmaceutical excipients.
The E-plate was coated with 0.2% rat tail collagen–DW solution for 20 min at 37 °C. Culture media (60 μL) was added to each well for background readings than 100 µL Caco-2 cell suspension was dispensed at the density of 1.5 × 10^4 cells/well. The cells were grown for 2 days. The medium was changed to excipients solutions and the cells in the E-plate were kept in an incubator at 37 °C for 8 h and monitored every 5 min.
The cell index at each time point was defined as (Rn − Rb)/15, where Rn is the cell-electrode impedance of the well when it contains cells and Rb is the background impedance of the well with the media alone.

Data set [3] is described as follows: Solubility of the samples in isotonic PBS. The note with it: isotonic phosphate buffered saline (PBS). It is filed as physicochemical. The procedure: α-Cyclodextrin derivatives were generously offered by Cyclolab Ltd. (Cyclodextrin Research & Development Laboratory, Budapest, Hungary). […] We investigated each α-CD in 7 different concentrations: 0.01; 0.1; 1; 10; 25; 50 and 100 mM, with the exception of TRIMEA, which was not soluble above 30 mM. The solid samples were dissolved in isotonic phosphate buffered saline (PBS), purchased from Sigma–Aldrich (Budapest, Hungary) (Table 2.)

Turning to `COC[C@H]1O[C@@H]2O[C@@H]3[C@@H](OC)[C@@H](OC)[C@@H](O[C@@H]4[C@@H](OC)[C@@H](OC)[C@@H](O[C@@H]5[C@@H](OC)[C@@H](OC)[C@@H](O[C@@H]6[C@@H](OC)[C@@H](OC)[C@@H](O[C@@H]7[C@@H](OC)[C@@H](OC)[C@@H](O[C@@H]1[C@@H](OC)[C@H]2OC)O[C@@H]7COC)O[C@@H]6COC)O[C@@H]5COC)O[C@@H]4COC)O[C@@H]3COC` [TRIMEA, hexakis-(2,3,6-tri-O-methyl)-α-CD], the HC50 with human erythrocytes worked out at 1.9 ± 0.01 mM. The IC50 is 1.8 ± 0.8 mM in the data set with Caco-2 cells [1] and above 1 mM in the data set on Caco-2 cells [2]. The compound also registered a solubility limit in data set [3] of at most 30 mM.
With `OC[C@H]1O[C@@H]2O[C@H]3[C@H](O)[C@@H](O)[C@@H](O[C@H]4[C@H](O)[C@@H](O)[C@@H](O[C@H]5[C@H](O)[C@@H](O)[C@@H](O[C@H]6[C@H](O)[C@@H](O)[C@@H](O[C@H]7[C@H](O)[C@@H](O)[C@@H](O[C@H]1[C@H](O)[C@H]2O)O[C@@H]7CO)O[C@@H]6CO)O[C@@H]5CO)O[C@@H]4CO)O[C@@H]3CO` [native, α-cyclodextrin], the HC50 with human erythrocytes came to 16.0 ± 0.02 mM; with human erythrocytes (listed as Native α-CD), 16 mM. In addition, the IC50 in the data set with Caco-2 cells [1] (Homo sapiens, 0.5 h) is 46.1 ± 9.2 mM; with Caco-2 cells [2] (Homo sapiens), above 25 mM.
As for (2-hydroxy) propyl α-CD [HPACD], in the data set on human erythrocytes, the “concentration up to which not hemolytic” value is above 100000 µM and the HC50 is above 100 mM. For the same compound, the HC50 in the data set with human erythrocytes (listed as Hydroxypropyl) is reported as above 100 mM. In the data set on Caco-2 cells [1], the “concentration up to which no toxic effect (MTT)” value is above 100000 µM and the half-maximal inhibitory concentration (IC50) was above 100 mM. Besides, in the data set with Caco-2 cells [2], the “concentration up to which non-toxic (RT-CES)” value is above 100000 µM and the IC50 was above 100 mM.
As to acetylated α-CD [AcACD], in the data set on human erythrocytes, the “concentration up to which not hemolytic” value was above 100000 µM and the HC50 is above 100 mM. In the data set on human erythrocytes (listed as acetyl), this compound gave an HC50 above 100 mM. In the data set on Caco-2 cells [1], the “concentration up to which no toxic effect (MTT)” value was above 100000 µM and the IC50 was above 100 mM. In addition, in the data set on Caco-2 cells [2], the “concentration up to which non-toxic (RT-CES)” value was above 100000 µM and the concentration for half-maximal inhibition (IC50) is above 100 mM.
The compound “carboxymethylated α-CD sodium salt [CMACD]” returned an HC50 in the data set on human erythrocytes above 100 mM. Also, in the data set on human erythrocytes (listed as carboxymethylated), the HC50 is above 100 mM. Moreover, in the data set with Caco-2 cells [1], the “concentration up to which no toxic effect (MTT)” value was above 100000 µM and the IC50 was above 100 mM. The “toxicity by RT-CES, result in words” value with Caco-2 cells [2] is on record as “toxic when the exposition time was prolonged”.
Take phosphated α-CD sodium salt: in the data set with human erythrocytes, the “hemolysis, result in words” value is “did not result in hemolysis” and the HC50 is above 100 mM. In the data set on Caco-2 cells [1], this compound displayed an IC50 of 7.8 ± 8.6 mM.
In the data set with human erythrocytes, randomly methylated α-CD [RAMEA] gave a concentration for 50% haemolysis (HC50) of 15.5 ± 0.01 mM. Further, in the data set on Caco-2 cells [1], half-maximal inhibition (IC50) was put at 78.6 ± 15.8 mM.
In the data set with human erythrocytes, succinylated α-CD [SuACD] showed an HC50 of 9.6 ± 0.03 mM. The IC50 is 19 ± 8.8 mM with Caco-2 cells [1] and above 1 mM with Caco-2 cells [2].
In the data set on human erythrocytes, sulfated α-CD displayed an HC50 above 100 mM. In the data set on Caco-2 cells [1], the “concentration up to which no toxic effect (MTT)” value is above 100000 µM and the concentration for half-maximal inhibition (IC50) was above 100 mM. Besides, the “toxicity by RT-CES, result in words” value with Caco-2 cells [2] was “toxic when the exposition time was prolonged”.
